According to patent EP1351977B1, “ANTIMICROBIAL PSEUDOPEPTIDES” (INSTITUT NATIONAL DE LA RECHERCHE AGRONOMIQUE (INRA), priority 2001, dated 2004):
Ends that are not written are not given here.

How the values were obtained:
Assay type in all cases: cell-based
Pseudomonas aeruginosa = experiment: Bacterial growth inhibition test in microplates (liquid medium), MIC, nosocomial bacteria; settings: microplate test, TSB, 24h; nosocomial strain
Method: (§1) Deux tests ont été utilisés pour mesurer l'activité antibactérienne des pseudopeptides, un test d'inhibition de la croissance bactérienne en microplaques (de 96 puits) en milieu liquide et un test d'inhibition de la croissance bactérienne en boîte de Pétri en milieu solide. • * Test en microplaques: La culture bactérienne à tester est prélevée en phase exponentielle, puis diluée au 1/500^ème dans du milieu liquide TSB frais. Chaque puits de la microplaque est rempli avec 100 µl de suspension bactérienne diluée. Dans le premier puits, 100 µl de l'échantillon de pseudopeptide à tester est ajouté à la suspension bactérienne, puis l'échantillon est dilué de 2 en 2 en transférant d'un puits à l'autre 100 µl de suspension. La lecture de la microplaque se fait en mesurant la densité optique à […] (DO600nm) après 24h d'incubation à 28°C ou 37°C selon les bactéries cibles. Connaissant la concentration en pseudopeptide de l'échantillon de départ, ce test permet de déterminer la valeur de la CMI (Concentration Minimale d'Inhibition de la croissance bactérienne). Dans ce test, la CMI correspond à la concentration de l'échantillon pour lequel la DO600nm est inférieure à celle du témoin de culture. • * Test en boîte de Pétri: La culture bactérienne à tester est prélevée en phase exponentielle, puis incorporée à 10 ml d'une gélose dite "sous-couche" (Agarose 1% poids/vol; NaCl 100 mM; Trypcase 0.03 % poids/vol; Tampon phosphate 10 mM pH7.4) à raison de 2.10^5 bactéries/ml. Le mélange est coulé dans une boîte de Pétri ordinaire. 9 puits d'environ 10 µl de volume sont formés dans la "sous-couche" à l'aide d'un embout de pipette stérile de 10 ml. Ces puits sont remplis avec une série de dilutions des pseudopeptides à tester (concentration initiale 500 µg/ml, et dilution de deux en deux jusqu'à 1,95 µg/ml). Après diffusion à température ambiante pendant 2h, une gélose dite "sur-couche" (Agarose 1% wt/vol; Trypcase 6 % wt/vol; Tampon phosphate 10 mM pH7.4) est ajoutée sur la sous-couche à raison de 5 à 10 ml. Après solidification, l'ensemble est mis à incuber pendant une nuit. Le diamètre d'inhibition de la culture bactérienne autour de chaque puits est mesuré en mm; il existe une relation linéaire entre le diamètre d'inhibition et le log10 de la concentration en pseudopeptide qui permet de déterminer par extrapolation la valeur de la CMI.
(§2) Une seconde série de résultats a été obtenue en utilisant le test en microplaques vis-à-vis de bactéries nosocomiales issues de la collection du laboratoire de Bactériologie Médicale du Centre Hospitalier Universitaire de Nîmes (France). Dans cette série, seul le pseudopeptide contenu dans la fraction 8 a été testé (Tableau 5).

Enterococcus sp. = experiment: as above; settings: microplate test, TSB, 24h; nosocomial strain
Method: as §1, §2

[1] = tested on: Stenotrophomonas maltophilia; experiment: as above; settings: microplate test, TSB, 24h; nosocomial strain
Method: as §1, §2

Enterobacter aerogenes = experiment: as above; settings: microplate test, TSB, 24h; nosocomial strain
Method: as §1, §2

Staphylococcus aureus [2] = experiment: as above; settings: microplate test, TSB, 24h; nosocomial strain
Method: as §1, §2

Alternaria brassicae = experiment: Antifungal growth inhibition test in liquid medium
Staphylococcus aureus [3] = experiment: Bacterial growth inhibition test in Petri dish (solid medium), MIC; settings: MIC extrapolated from inhibition diameter vs log10 concentration
Serratia entomophila = experiment: as above; settings: MIC extrapolated from inhibition diameter vs log10 concentration
Escherichia coli CIP548 = experiment: as above; settings: MIC extrapolated from inhibition diameter vs log10 concentration
[4] = tested on: Proteus vulgaris CIP58.60; experiment: as above; settings: MIC extrapolated from inhibition diameter vs log10 concentration
Phytophthora myc = experiment: Antifungal growth inhibition test in liquid medium
Excerpt: (§3) Les composés des pics 5, 7 et 8 de la figure 1 ont été testées vis-à-vis d'un ensemble de champignons phytopathogènes. Trois doses (10, 20, et 40 ppm) ont été employées pour chacun des composés.
(§4) L'activité antifongique a été détectée par un test d'inhibition de croissance en milieu liquide. Les spores des champignons à tester ont été mises en suspension dans un milieu de culture de type "Pomme de terre-Glucose". De préférence, on utilise 12 g de milieu Potato Dextrose Broth (Difco) pour 1 litre d'eau déminéralisée. Deux antibiotiques ont été rajoutés au milieu de culture: la tétracycline (concentration finale de 10 µg/ml) et la céfotaxime (100 µg/ml). On dépose 10 µl de chaque composé à tester dans des plaques de microtitration en présence de 90 µl de milieu de culture contenant les spores (à une concentration finale de 10^4 spores/ml). L'incubation a été réalisée en chambre humide à 30°C durant 48 heures. La croissance fongique a été observée au microscope photonique après 24 h et quantifiée après 48 heures par mesure de l'absorbance à 600 nm à l'aide d'un spectrophotomètre lecteur de plaque de microtitration. L'activité des composés contre les champignons phytopathogènes est exprimée par un pourcentage d'inhibition de croissance correspondant à 100 x (1 - absorbance avec produit/ absorbance du témoin sans produit), l'absorbance étant mesurée à 600 nm, 5 jours après le début de l'expérience.

Fusarium culmorum sp = experiment: Antifungal growth inhibition test in liquid medium
Excerpt: as §3, §4

bactériophage lambda = experiment: Antiviral test, lysis plaque method in Top-Agar on E. coli SURE
Method: L'activité antivirale des pseudopeptides selon l'invention a été démontrée vis-à-vis du bactériophage lambda. Le bactériophage λ-ZAP est naturellement lytique sur la souche E. coli SURE (Stratagène). Cette activité lytique est mesurable par la méthode des plages de lyse en gélose Top-Agar. 2 µl d'une suspension de virus à 3,5 .10^5 pfu/ml dans du tampon SM ont été mis en présence de 2 µl du pseudopeptides compris dans le pic 8 à 0,5 mg/ml dans de l'eau pure. Après 15 min d'incubation à 37°C, la suspension est mélangée à 3,5 ml de Top-Agar pré-ensemencée avec E. coli SURE à 2 .10^5 cfu/ml. La concentration de pseudopeptide dans la gélose Top-Agar est inférieure à la CMI vis-à-vis de E. coli SURE. Le mélange est coulé en boîte de Pétri puis mis à incuber à 37°C pendant 12h. Le résultat est donné dans le tableau 6.

With “Composé 8: pseudopeptide du pic n° 8 de Xenorhabdus nematophilus F1; Famille 1: Lys Lys Lys Lys Lys Gly; 1066 Da; structure en Figure 2 (KKKKKG; also: pseudopeptide modifications)” the CMI (Pseudomonas aeruginosa) was 12,5 µg/ml, the CMI (Enterococcus sp.) was 12,5 µg/ml and the CMI [1] was 25 µg/mL. The CMI (Enterobacter aerogenes) was 25 µg/mL, the CMI (Staphylococcus aureus [2]) was 25 µg/mL and the “pourcentage d'inhibition de croissance” value (Alternaria brassicae; 10 ppm) was 82%. The “pourcentage d'inhibition de croissance” value (Alternaria brassicae; 20 ppm) was 82%, the “pourcentage d'inhibition de croissance” value (Alternaria brassicae; 40 ppm) was 83% and the CMI (Staphylococcus aureus [3]) was 15 µg/mL. The CMI (Serratia entomophila) was 30 µg/mL, the CMI (Escherichia coli CIP548) was 7,5 µg/ml and the CMI [4] was 100 µg/mL. The “pourcentage d'inhibition de croissance” value (Phytophthora myc; 10 ppm) was 76%, the “pourcentage d'inhibition de croissance” value (Phytophthora myc; 20 ppm) was 78% and the “pourcentage d'inhibition de croissance” value (Phytophthora myc; 40 ppm) was 77%. For the same substance, the “pourcentage d'inhibition de croissance” value (Fusarium culmorum sp; 10 ppm) was 96%, the “pourcentage d'inhibition de croissance” value (Fusarium culmorum sp; 20 ppm) was 96% and the “pourcentage d'inhibition de croissance” value (Fusarium culmorum sp; 40 ppm) was 96%. The “inhibition du cycle lytique du bactériophage lambda” value (bactériophage lambda; 250 µg/ml) was over 95% and the “Nbre de pfu/boîte” value (bactériophage lambda; in presence of pseudopeptide, 15 min pre-incubation at 37°C with phage, control without pseudopeptide 700 ±50) was 40 ± 5 pfu/boîte.
